We go through 54 compounds from patent publication US6620828B2, “Thiazole compounds and pharmaceutical compositions for inhibiting protein kinases and methods for their use” (Agouron Pharmaceuticals, Inc., priority 1999, dated 2003).

This test concerns human umbilical vein endothelial cells (HUVEC). Briefly: HUVEC proliferation assay. The test is classed as cell-based. The settings on record: for inhibition at 0.001 µM / inhibition at 0.01 µM / inhibition at 0.05 µM / inhibition at 0.15 µM: Homo sapiens, HUVEC; for inhibition at 0.001 µM: 1 nM; for inhibition at 0.01 µM: 10 nM; for inhibition at 0.05 µM: 50 nM. The method in brief:
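Exponentially growing HUVEC were serum-starved 24 h (F12K + 1% FBS), pre-treated 1 h with compound (0.1% DMSO final), then stimulated with 6 ng/ml VEGF. Proliferation was read 72 h later by MTT reduction (A595). IC50 came from seven 0.5-log concentrations in triplicate; screens gave % inhibition relative to VEGF-only and starved wells.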

Where [1] appears, read: Table II screening results, crude combinatorial amide library.
[2] abbreviates: Table II screening results, crude combinatorial amide library, read-out: % inhibition @ 10 nM.
[3] abbreviates: crude combinatorial urea library, read-out: Inhibition of HUVEC Proliferation % inhibition @ 10 nM.
The mark [4] stands for this setting: crude combinatorial urea library, read-out: Inhibition of HUVEC Proliferation % inhibition @ 50 nM.
The mark [5] stands for this setting: Inhibition of HUVEC Proliferation, crude combinatorial urea library, read-out: Inhibition @ 50 nM.
[6] abbreviates: Inhibition of HUVEC Proliferation, crude combinatorial urea library, read-out: % inhibition @ 50 nM.
Where [7] appears, read: Table I screening results, 150 nM, crude combinatorial amide library.
Setting [8] is: table following Table II (untitled), crude combinatorial library.
The mark [9] stands for this setting: table following Table II (untitled), crude combinatorial library, read-out: % inhibition @ 10 nM.

The structures appear in SMILES notation. Read-outs that look alike come from different tables or passages of the source.

Turning to `CNC(=O)Nc1nc(N)c(-c2nc(-c3cccc(NC(=O)/C=C/c4cccc(OC)c4)c3)cs2)s1`, the inhibition at 0.001 µM under setting [1] is -1%. Further, the inhibition at 0.01 µM under setting [2] was -12%.

Turning to `COc1cccc(C(=O)Nc2cccc(-c3csc(-c4sc(NC(=O)NC5CCS(=O)(=O)C5)nc4N)n3)c2)c1` (stereo not drawn), the inhibition at 0.01 µM under setting [3] worked out at 9%. Moreover, the inhibition at 0.05 µM under setting [4] turned out to be 86%.

For the compound `COc1cccc(C(=O)Nc2cc(-c3noc(-c4sc(NC(=O)NCc5ccc(N(C)C)cc5)nc4N)n3)c(F)cc2F)c1`, under setting [5], the inhibition at 0.05 µM is 48%.

Regarding `COCCNC(=O)Nc1nc(N)c(-c2nc(-c3cc(NC(=O)c4cccc(OC)c4)c(F)cc3F)cs2)s1`, the inhibition at 0.05 µM under setting [6] turned out to be 21%.

In the case of `COc1cc(Nc2nc(N)c(-c3nc(-c4cccc(NC(=O)c5ncoc5-c5ccccc5)c4)cs3)s2)cc(OC)c1OC` [drawing 897], under setting [7], the inhibition at 0.15 µM came to 64%.

With `COc1cc(Nc2nc(N)c(-c3nc(-c4cccc(NC(=O)C5(c6ccccc6)CCCC5)c4)cs3)s2)cc(OC)c1OC`, under setting [7], the inhibition at 0.15 µM was -10%.

Consider `CNC(=O)Nc1nc(N)c(-c2nc(-c3cccc(NC(=O)Cn4ccc5ccccc54)c3)cs2)s1`, for which the inhibition at 0.001 µM under setting [1] was found to be 4%. Besides, under setting [2], the inhibition at 0.01 µM was -15%.

With `COc1cc(Nc2nc(N)c(-c3nc(-c4cc(NC(=O)Cc5cn(C)cn5)ccc4C)no3)s2)cc(OC)c1OC`, under setting [8], the inhibition at 0.001 µM was -7%. The inhibition at 0.01 µM under setting [9] is -14%.

For the compound `COc1cccc(C(=O)Nc2cc(-c3noc(-c4sc(NC(=O)N[C@@H](CC(N)=O)C(N)=O)nc4N)n3)c(F)cc2F)c1`, the inhibition at 0.05 µM under setting [5] was 86%.

Turning to `C/C=C/C(=O)Nc1ccc(C)c(-c2noc(-c3sc(Nc4cc(OC)c(OC)c(OC)c4)nc3N)n2)c1`, the inhibition at 0.001 µM under setting [8] worked out at 9%. Further, the inhibition at 0.01 µM under setting [9] is 65%.

Consider `COc1cccc(C(=O)Nc2cc(-c3noc(-c4sc(NC(=O)NCCOCCO)nc4N)n3)c(F)cc2F)c1` [drawing 787], for which the inhibition at 0.05 µM under setting [5] stood at 98%.

On to `CNC(=O)Nc1nc(N)c(-c2nc(-c3cc(NC(=O)c4cccc(OC)c4)c(F)cc3F)no2)s1` [drawing 782], for which, under setting [5], the inhibition at 0.05 µM was 105%.

As to `COc1cccc(C(=O)Nc2cccc(-c3csc(-c4sc(NC(=O)NC(CO)CO)nc4N)n3)c2)c1`, the inhibition at 0.01 µM under setting [3] is -17%. The inhibition at 0.05 µM under setting [4] is 52%.

Consider `C=CCC(=O)Nc1cccc(-c2csc(-c3sc(NC(=O)NC)nc3N)n2)c1`, for which, under setting [1], the inhibition at 0.001 µM stood at 8%. The inhibition at 0.01 µM under setting [2] was -13%.

Consider `COc1cc(Nc2nc(N)c(-c3nc(-c4cc(NC(=O)c5cc(=O)cco5)ccc4C)no3)s2)cc(OC)c1OC`, for which the inhibition at 0.001 µM under setting [8] was 19%. In addition, under setting [9], the inhibition at 0.01 µM is 37%.

In the case of `COc1cccc(CC(=O)Nc2cccc(-c3csc(-c4sc(Nc5cc(OC)c(OC)c(OC)c5)nc4N)n3)c2)c1`, the inhibition at 0.15 µM under setting [7] was found to be 12%.

On to `COc1cccc(C(=O)Nc2cc(-c3noc(-c4sc(NC(=O)NCCc5ccc(S(N)(=O)=O)cc5)nc4N)n3)c(F)cc2F)c1`, for which the inhibition at 0.05 µM under setting [5] is 83%.

With `COc1cccc(C(=O)Nc2cc(-c3csc(-c4sc(NC(=O)NCc5ccccn5)nc4N)n3)c(F)cc2F)c1` [drawing 705], under setting [6], the inhibition at 0.05 µM amounted to 118%.

With `COc1cccc(C(=O)Nc2cccc(-c3csc(-c4sc(NC(=O)NCc5cccnc5)nc4N)n3)c2)c1`, under setting [3], the inhibition at 0.01 µM came out at 3%. Moreover, the inhibition at 0.05 µM under setting [4] was 105%.

As to `COc1cc(Nc2nc(N)c(-c3nc(-c4cccc(NC(=O)c5c[nH]c6ccccc56)c4)cs3)s2)cc(OC)c1OC`, under setting [7], the inhibition at 0.15 µM was determined as 20%.

Consider `COc1cc(Nc2nc(N)c(-c3nc(-c4cccc(NC(=O)/C=C/c5ccccc5)c4)cs3)s2)cc(OC)c1OC`, for which the inhibition at 0.15 µM under setting [7] turned out to be 36%.

For the compound `CCC(CO)NC(=O)Nc1nc(N)c(-c2nc(-c3cc(NC(=O)c4cccc(OC)c4)c(F)cc3F)cs2)s1` (stereo not drawn), under setting [6], the inhibition at 0.05 µM stood at 108%.

On to `CCN(CC)CCCNC(=O)Nc1nc(N)c(-c2nc(-c3cc(NC(=O)c4cccc(OC)c4)c(F)cc3F)cs2)s1`, for which the inhibition at 0.05 µM under setting [6] was 89%.

With `CNC(=O)Nc1nc(N)c(-c2nc(-c3cccc(NC(=O)/C=C/C4C[C@H]5C=C[C@@H]4C5)c3)cs2)s1` (stereo partly drawn), under setting [1], the inhibition at 0.001 µM is 11%. Further, the inhibition at 0.01 µM under setting [2] is 50%.

Take `COc1cc(Nc2nc(N)c(-c3nc(-c4cccc(NC(=O)C(=O)Cc5ccccc5)c4)cs3)s2)cc(OC)c1OC`: the inhibition at 0.15 µM under setting [7] was determined as 20%.

`COc1cccc(C(=O)Nc2cccc(-c3csc(-c4sc(NC(=O)NCCc5cccnc5)nc4N)n3)c2)c1`: under setting [3], the inhibition at 0.01 µM was found to be 35%. Moreover, the inhibition at 0.05 µM under setting [4] came to 97%.

Regarding `COc1cccc(C(=O)Nc2cccc(-c3csc(-c4sc(NC(=O)NCCCN5CCCCCC5)nc4N)n3)c2)c1`, the inhibition at 0.01 µM under setting [3] worked out at 2%. Moreover, the inhibition at 0.05 µM under setting [4] stood at 117%.

Regarding `COc1cccc(C(=O)Nc2cccc(-c3csc(-c4sc(NC(=O)NCC(N)=O)nc4N)n3)c2)c1`, the inhibition at 0.01 µM under setting [3] came out at 12%. Besides, the inhibition at 0.05 µM under setting [4] stood at 25%.

As to `CNC(=O)Nc1nc(N)c(-c2nc(-c3cccc(NC(=O)[C@@]45C[C@@H]6C[C@@H]4CC6(C)C5)c3)cs2)s1`, the inhibition at 0.001 µM under setting [1] is -20%. Also, the inhibition at 0.01 µM under setting [2] came out at 2%.

On to `COc1cc(Nc2nc(N)c(-c3nc(-c4cc(NC(=O)CCC(=O)N5CCCC5)ccc4C)no3)s2)cc(OC)c1OC`, for which the inhibition at 0.001 µM under setting [8] is -18%. For the same compound, the inhibition at 0.01 µM under setting [9] is -20%.

Turning to `COc1cccc(C(=O)Nc2cc(-c3csc(-c4sc(NC(=O)NCP(=O)(O)O)nc4N)n3)c(F)cc2F)c1`, the inhibition at 0.05 µM under setting [6] came out at 48%.

For the compound `COc1cc(Nc2nc(N)c(-c3nc(-c4cccc(NC(=O)c5ccc(C#N)cc5)c4)cs3)s2)cc(OC)c1OC`, the inhibition at 0.15 µM under setting [7] came out at 34%.

In the case of `COc1cc(Nc2nc(N)c(-c3nc(-c4cccc(NC(=O)CCOc5ccccc5)c4)cs3)s2)cc(OC)c1OC`, the inhibition at 0.15 µM under setting [7] came out at 11%.

`COc1cccc(C(=O)Nc2cc(-c3noc(-c4sc(NC(=O)NCC(C)(C)N)nc4N)n3)c(F)cc2F)c1`: the inhibition at 0.05 µM under setting [5] is 14%.

As to `COc1cc(Nc2nc(N)c(-c3nc(-c4cc(NC(=O)C5CC(=O)N(C)C5)ccc4C)no3)s2)cc(OC)c1OC` (stereo not drawn), the inhibition at 0.001 µM under setting [8] is 16%. For the same compound, the inhibition at 0.01 µM under setting [9] was -18%.

Take `CCN(CCNC(=O)Nc1nc(N)c(-c2nc(-c3cccc(NC(=O)c4cccc(OC)c4)c3)cs2)s1)c1cccc(C)c1`: the inhibition at 0.01 µM under setting [3] is -10%. The inhibition at 0.05 µM under setting [4] was determined as 125%.

For `COc1cc(Nc2nc(N)c(-c3nc(-c4cc(NC(=O)[C@H](C)C(C)C)ccc4C)no3)s2)cc(OC)c1OC`, the inhibition at 0.001 µM under setting [8] was -8%. In addition, the inhibition at 0.01 µM under setting [9] is -18%.

As to `COc1cc(Nc2nc(N)c(-c3nc(-c4cccc(NC(=O)C5CCN(C(C)=O)CC5)c4)cs3)s2)cc(OC)c1OC`, the “% inhibition @ 150 nM” value under setting [7] was determined as 0%.

On to `COc1cccc(C(=O)Nc2cc(-c3noc(-c4sc(NC(=O)NCC(F)(F)F)nc4N)n3)c(F)cc2F)c1`, for which the inhibition at 0.05 µM under setting [5] is 89%.

With `COc1cc(Nc2nc(N)c(-c3nc(-c4cccc(NC(=O)c5ccc(NC(C)=O)cc5)c4)cs3)s2)cc(OC)c1OC`, under setting [7], the inhibition at 0.15 µM was 16%.

For the compound `COc1cccc(C(=O)Nc2cc(-c3csc(-c4sc(NC(=O)NCCc5ccncc5)nc4N)n3)c(F)cc2F)c1` [drawing 753], the inhibition at 0.05 µM under setting [6] turned out to be 98%.

In the case of `CNC(=O)Nc1nc(N)c(-c2nc(-c3cccc(NC(=O)CC4=CCCCC4)c3)cs2)s1`, under setting [1], the inhibition at 0.001 µM worked out at 29%. In addition, the inhibition at 0.01 µM under setting [2] turned out to be 82%.

For the compound `COc1cccc(C(=O)Nc2cc(-c3csc(-c4sc(NC(=O)NCCc5cncn5C)nc4N)n3)c(F)cc2F)c1`, the inhibition at 0.05 µM under setting [6] was found to be 58%.

With `COc1cccc(C(=O)Nc2cc(-c3noc(-c4sc(NC(=O)NC(C)CO)nc4N)n3)c(F)cc2F)c1` (stereo not drawn), under setting [5], the inhibition at 0.05 µM is 77%.

Turning to `COc1cccc(C(=O)Nc2cc(-c3csc(-c4sc(NC(=O)NCc5ccc(N)cc5)nc4N)n3)c(F)cc2F)c1`, under setting [6], the inhibition at 0.05 µM was 83%.

Regarding `COc1cccc(C(=O)Nc2cccc(-c3csc(-c4sc(NC(=O)NCCOCCO)nc4N)n3)c2)c1`, the inhibition at 0.01 µM under setting [3] came to 13%. The inhibition at 0.05 µM under setting [4] turned out to be 92%.

As to `COc1cccc(C(=O)Nc2cc(-c3csc(-c4sc(NC(=O)NCC(C)N(C)C)nc4N)n3)c(F)cc2F)c1` (stereo not drawn), the inhibition at 0.05 µM under setting [6] came to 22%.

Consider `C#CCCCC(=O)Nc1cccc(-c2csc(-c3sc(Nc4cc(OC)c(OC)c(OC)c4)nc3N)n2)c1`, for which the inhibition at 0.15 µM under setting [7] is -14%.

With `COc1cccc(C(=O)Nc2cc(-c3noc(-c4sc(NC(=O)NCC(C)C)nc4N)n3)c(F)cc2F)c1` [drawing 804], under setting [5], the inhibition at 0.05 µM was 20%.

Take `COc1cc(Nc2nc(N)c(-c3nc(-c4cccc(NC(=O)c5ccc(-c6ccccc6)cc5)c4)cs3)s2)cc(OC)c1OC`: the inhibition at 0.15 µM under setting [7] is -32%.

Consider `COc1cccc(C(=O)Nc2cc(-c3csc(-c4sc(NC(=O)NCC5(O)CCCCC5)nc4N)n3)c(F)cc2F)c1`, for which, under setting [6], the inhibition at 0.05 µM came out at 72%.

`COc1cc(Nc2nc(N)c(-c3nc(-c4cccc(NC(=O)C(c5ccccc5)C5CCCC5)c4)cs3)s2)cc(OC)c1OC` (stereo not drawn): the inhibition at 0.15 µM under setting [7] turned out to be 3%.

In the case of `COc1cc(Nc2nc(N)c(-c3nc(-c4cc(NC(=O)c5cc(F)ccc5C)ccc4C)no3)s2)cc(OC)c1OC`, the inhibition at 0.001 µM under setting [8] was determined as 29%. The inhibition at 0.01 µM under setting [9] was 64%.

`COc1cccc(C(=O)Nc2cc(-c3csc(-c4sc(NC(=O)NCCCN(C)C)nc4N)n3)c(F)cc2F)c1`: the inhibition at 0.05 µM under setting [6] turned out to be 72%.
